The target of test [1] is Jack bean (Canavalia ensiformis) urease (Canavalia ensiformis, UniProt P07374). The experiment in a line: biochemical. From the text:
Each point in the constructed graphs represents the mean of the three experiments.

In test [2] the target is urease enzyme (Canavalia ensiformis, UniProt P07374). Description: Mechanistic studies (Lineweaver-Burk, secondary replot, Dixon plot). Format: biochemical. As to conditions: Lineweaver-Burk and Dixon plots; substrate 0.5-4.0 mM; Ropinirole 5, 10, 20 μM. The protocol: Mechanistic studies were carried out to determine the mechanism of inhibition of 4-[2-(dipropylamino)ethyl]-1,3-dihydro-2H-indol-2-one ( Ropinirole) of the enzyme urease. In brief, urease enzyme solution (1 U/200 μL) was incubated with different concentrations of Ropinirole for 15 min at 30° C. The reaction was then initiated by adding different concentrations of substrate (0.5-4.0 mM), then phenol and alkali reagent were added and change in absorbance was measured for 50 minutes at 630 nm on microtitre plate reader (SpectraMax M5, Molecular Devices, Calif., USA). The Lineweaver-Burk plot was used to determine the type of inhibition, while secondary replot of Lineweaver-Burk plot and Dixon plots were used for the determination and confirmation of dissociation constants (Ki).
The EZ-Fit enzyme kinetics program (Perrella Scientific Inc., Amherst, USA) was employed to calculate the IC50 values. All graphs were plotted by using Grafit 7 (Erithacus Software Limited, UK). Values of the correlation coefficients, intercepts, slopes, and their standard errors were calculated by the linear regression analysis by using the same program. Each point in the constructed graphs represents the mean of the three experiments.

Read-outs that look alike come from different tables or passages of the source.

For orientation: IC50 means the concentration at which inhibition is half-maximal.

Sequence of Jack bean (Canavalia ensiformis) urease (P07374 whole entry, looked up): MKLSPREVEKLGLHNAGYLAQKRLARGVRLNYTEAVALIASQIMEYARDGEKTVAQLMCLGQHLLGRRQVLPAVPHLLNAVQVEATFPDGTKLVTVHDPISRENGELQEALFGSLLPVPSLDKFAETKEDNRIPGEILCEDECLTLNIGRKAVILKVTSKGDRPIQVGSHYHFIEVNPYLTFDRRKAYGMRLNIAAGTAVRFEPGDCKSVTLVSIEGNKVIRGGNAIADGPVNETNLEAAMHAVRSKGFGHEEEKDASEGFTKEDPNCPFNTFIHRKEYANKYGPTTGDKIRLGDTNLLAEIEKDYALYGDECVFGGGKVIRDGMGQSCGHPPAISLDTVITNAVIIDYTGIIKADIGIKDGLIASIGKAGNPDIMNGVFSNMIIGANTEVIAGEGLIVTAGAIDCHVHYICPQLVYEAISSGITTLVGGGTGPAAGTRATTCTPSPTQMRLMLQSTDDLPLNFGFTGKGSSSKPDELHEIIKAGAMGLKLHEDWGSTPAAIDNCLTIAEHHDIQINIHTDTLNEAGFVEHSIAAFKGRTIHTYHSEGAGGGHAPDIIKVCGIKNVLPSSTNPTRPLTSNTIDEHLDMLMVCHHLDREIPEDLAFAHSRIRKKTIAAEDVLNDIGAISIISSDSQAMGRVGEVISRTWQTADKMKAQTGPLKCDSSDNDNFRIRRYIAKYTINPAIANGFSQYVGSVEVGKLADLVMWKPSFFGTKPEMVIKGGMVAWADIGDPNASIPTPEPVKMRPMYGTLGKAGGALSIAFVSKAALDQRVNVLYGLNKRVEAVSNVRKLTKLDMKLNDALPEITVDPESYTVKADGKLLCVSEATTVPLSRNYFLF
Sequence of urease enzyme (P07374 whole entry, looked up): as above

`CCCN(CCC)CCc1cccc2c1CC(=O)N2` [Ropinirole, 4-[2-(Dipropylamino)ethyl]-1,3-dihydro-2H-indol-2-one]: half-maximal inhibition in test [1] (IC50) was put at 11.7 ± 0.46 µM. Also, the type of inhibition result in test [2] is given as “mixed-type of inhibitor”.
With `CC(=O)NO` [acetohydroxamic acid], the IC50 in test [1] (Jack bean urease, 100 mM urea, pH 6.8, 30° C., 15 min, triplicate, read-out: IC50 (urease inhibition)) is 41.5 ± 1.5 µM.

The values are drawn from patent publication US20170252323A1, “4-[2-(Dipropylamino)ethyl]-1,3-dihydro-2H-indol-2-one (Ropinirole) a New Inhibitor of Jack bean Urease Enzyme: An Example of Drug Repurposing” (priority 2016, published 2017).
